Columns and labels:
[1] = xn = mol fraction of the nth substance listed; conditions: 99 kPa, Liquid; for viscosity: Capillary tube (Ostwald / Ubbelohde) method; for speed of sound: Frequency=3 MHz, Sing-around technique in a fixed-path interferometer; for mass density: Vibrating tube method
[2] = refractive index (Na D-line) (dimensionless); xn = mol fraction of the nth substance listed; conditions: 99 kPa, Liquid, Standard Abbe refractometry

CC(=O)N(C)C [N,N-dimethylethanamide] + CCO
Conditions | mass density, [1] [kg/m3] | refractive index, [2] | speed of sound, [1] [m/s] | viscosity, [1] [mPa·s]
283.15 K, x1 = 0.0524 | 811.441 | 1.37246 | 1225.3 | 1.369
283.15 K, x1 = 0.1071 | 824.492 | 1.37916 | 1254.6 | 1.306
283.15 K, x1 = 0.2064 | 845.481 | 1.39001 | 1298 | 1.229
283.15 K, x1 = 0.3022 | 863.302 | 1.39925 | 1334.9 | 1.187
283.15 K, x1 = 0.4057 | 880.337 | 1.40801 | 1369.6 | 1.166
283.15 K, x1 = 0.5032 | 894.71 | 1.41538 | 1399.5 | 1.161
283.15 K, x1 = 0.6016 | 907.87 | 1.42196 | 1427.3 | 1.16
283.15 K, x1 = 0.7065 | 920.678 | 1.42823 | 1454 | 1.164
283.15 K, x1 = 0.8013 | 931.158 | 1.43325 | 1476.5 | 1.17
283.15 K, x1 = 0.9021 | 941.312 | 1.43826 | 1498.3 | 1.172
283.15 K, x1 = 0.9529 | 946.061 | 1.44059 | 1508.5 | 1.169
283.15 K, x1 = 1 | 950.131 | 1.44273 | 1516.8 | 1.168
298.15 K, x1 = 0.0524 | 798.435 | 1.36619 | 1172.1 | 1.038
298.15 K, x1 = 0.1071 | 811.331 | 1.37281 | 1199.9 | 1.003
298.15 K, x1 = 0.2064 | 832.087 | 1.38351 | 1242.5 | 0.9558
298.15 K, x1 = 0.3022 | 849.767 | 1.39264 | 1277.4 | 0.9319
298.15 K, x1 = 0.4057 | 866.689 | 1.40131 | 1312.1 | 0.9212
298.15 K, x1 = 0.5032 | 881.006 | 1.40863 | 1341 | 0.9169
298.15 K, x1 = 0.6016 | 894.141 | 1.41518 | 1367.9 | 0.921
298.15 K, x1 = 0.7065 | 906.822 | 1.42135 | 1394.4 | 0.9259
298.15 K, x1 = 0.8013 | 917.351 | 1.4264 | 1415.7 | 0.9311
298.15 K, x1 = 0.9021 | 927.481 | 1.43136 | 1437.6 | 0.9309
298.15 K, x1 = 0.9529 | 932.213 | 1.43367 | 1446.3 | 0.9307
298.15 K, x1 = 1 | 936.289 | 1.43579 | 1453.7 | 0.9299
313.15 K, x1 = 0.0524 | 785.68 | 1.35974 | 1120.6 | 0.8029
313.15 K, x1 = 0.1071 | 798.43 | 1.36632 | 1147.6 | 0.7849
313.15 K, x1 = 0.2064 | 818.908 | 1.37691 | 1188.7 | 0.7611
313.15 K, x1 = 0.3022 | 836.413 | 1.38598 | 1222.6 | 0.7493
313.15 K, x1 = 0.4057 | 853.186 | 1.39461 | 1256.3 | 0.7462
313.15 K, x1 = 0.5032 | 867.418 | 1.40189 | 1284.2 | 0.7469
313.15 K, x1 = 0.6016 | 880.488 | 1.40843 | 1310.5 | 0.7516
313.15 K, x1 = 0.7065 | 893.143 | 1.41463 | 1336.3 | 0.7581
313.15 K, x1 = 0.8013 | 903.56 | 1.41962 | 1358.5 | 0.7623
313.15 K, x1 = 0.9021 | 913.657 | 1.4246 | 1378.5 | 0.7643
313.15 K, x1 = 0.9529 | 918.346 | 1.42688 | 1386 | 0.7651
313.15 K, x1 = 1 | 922.429 | 1.42901 | 1393.3 | 0.7644

CC(=O)N(C)C [N,N-dimethylethanamide] + CO
Conditions | mass density, [1] [kg/m3] | refractive index, [2] | speed of sound, [1] [m/s] | viscosity, [1] [mPa·s]
283.15 K, x1 = 0.0602 | 823.325 | 1.34879 | 1204.4 | 0.7266
283.15 K, x1 = 0.1088 | 838.649 | 1.35969 | 1242 | 0.7638
283.15 K, x1 = 0.2079 | 864.147 | 1.37803 | 1305.6 | 0.831
283.15 K, x1 = 0.304 | 883.509 | 1.39207 | 1353.4 | 0.892
283.15 K, x1 = 0.4055 | 899.792 | 1.40414 | 1394 | 0.9491
283.15 K, x1 = 0.5011 | 912.039 | 1.41331 | 1424.8 | 0.9971
283.15 K, x1 = 0.6014 | 922.607 | 1.42138 | 1450.4 | 1.041
283.15 K, x1 = 0.7036 | 931.645 | 1.42811 | 1473.1 | 1.083
283.15 K, x1 = 0.803 | 938.688 | 1.43369 | 1489.2 | 1.117
283.15 K, x1 = 0.9076 | 945.177 | 1.43878 | 1505 | 1.149
283.15 K, x1 = 0.9502 | 947.535 | 1.4407 | 1510.7 | 1.158
283.15 K, x1 = 1 | 950.131 | 1.44273 | 1516.8 | 1.168
298.15 K, x1 = 0.0602 | 809.208 | 1.3423 | 1154.4 | 0.5868
298.15 K, x1 = 0.1088 | 824.553 | 1.35319 | 1190.7 | 0.6156
298.15 K, x1 = 0.2079 | 849.999 | 1.37142 | 1250.8 | 0.6706
298.15 K, x1 = 0.304 | 869.253 | 1.38536 | 1297.1 | 0.7197
298.15 K, x1 = 0.4055 | 885.574 | 1.39737 | 1336 | 0.764
298.15 K, x1 = 0.5011 | 897.92 | 1.40652 | 1365.2 | 0.8017
298.15 K, x1 = 0.6014 | 908.603 | 1.41458 | 1391.2 | 0.8364
298.15 K, x1 = 0.7036 | 917.769 | 1.42131 | 1413.5 | 0.8692
298.15 K, x1 = 0.803 | 924.814 | 1.42684 | 1429.2 | 0.8941
298.15 K, x1 = 0.9076 | 931.291 | 1.43186 | 1443.4 | 0.9147
298.15 K, x1 = 0.9502 | 933.67 | 1.43378 | 1449.2 | 0.9232
298.15 K, x1 = 1 | 936.289 | 1.43579 | 1453.7 | 0.9299
313.15 K, x1 = 0.0602 | 794.82 | 1.33598 | 1103.1 | 0.479
313.15 K, x1 = 0.1088 | 810.116 | 1.3468 | 1138.1 | 0.5045
313.15 K, x1 = 0.2079 | 835.563 | 1.36494 | 1196.3 | 0.5501
313.15 K, x1 = 0.304 | 854.874 | 1.37881 | 1240.7 | 0.5911
313.15 K, x1 = 0.4055 | 871.236 | 1.39075 | 1278.3 | 0.6287
313.15 K, x1 = 0.5011 | 883.681 | 1.39987 | 1306.9 | 0.6592
313.15 K, x1 = 0.6014 | 894.459 | 1.40791 | 1332.7 | 0.689
313.15 K, x1 = 0.7036 | 903.693 | 1.4146 | 1353 | 0.7156
313.15 K, x1 = 0.803 | 910.885 | 1.42013 | 1370.2 | 0.7362
313.15 K, x1 = 0.9076 | 917.391 | 1.42511 | 1383.7 | 0.7539
313.15 K, x1 = 0.9502 | 919.775 | 1.42701 | 1388.9 | 0.7607
313.15 K, x1 = 1 | 922.429 | 1.42901 | 1393.3 | 0.7644

Reference: the NIST ThermoML archive (doi:10.1021/acs.jced.5b01000)
